# PubChem BioAssay AID1033 (Sanford-Burnham Center for Chemical Genomics, 2008)
# Calls of active or inactive are those of the source. No rule for the calls is given here.
# Target: Chaperone protein DnaK (Escherichia coli (strain K12)) (UniProt P0A6Y8)
# Assay: E. coli DnaK SBD ligand binding – biophysical, NMR, chaperone (AID 1033)
# Conditions: Purified DnaK SBD
# Chain of Chaperone protein DnaK (Escherichia coli (strain K12)) (P0A6Y8 whole entry, looked up): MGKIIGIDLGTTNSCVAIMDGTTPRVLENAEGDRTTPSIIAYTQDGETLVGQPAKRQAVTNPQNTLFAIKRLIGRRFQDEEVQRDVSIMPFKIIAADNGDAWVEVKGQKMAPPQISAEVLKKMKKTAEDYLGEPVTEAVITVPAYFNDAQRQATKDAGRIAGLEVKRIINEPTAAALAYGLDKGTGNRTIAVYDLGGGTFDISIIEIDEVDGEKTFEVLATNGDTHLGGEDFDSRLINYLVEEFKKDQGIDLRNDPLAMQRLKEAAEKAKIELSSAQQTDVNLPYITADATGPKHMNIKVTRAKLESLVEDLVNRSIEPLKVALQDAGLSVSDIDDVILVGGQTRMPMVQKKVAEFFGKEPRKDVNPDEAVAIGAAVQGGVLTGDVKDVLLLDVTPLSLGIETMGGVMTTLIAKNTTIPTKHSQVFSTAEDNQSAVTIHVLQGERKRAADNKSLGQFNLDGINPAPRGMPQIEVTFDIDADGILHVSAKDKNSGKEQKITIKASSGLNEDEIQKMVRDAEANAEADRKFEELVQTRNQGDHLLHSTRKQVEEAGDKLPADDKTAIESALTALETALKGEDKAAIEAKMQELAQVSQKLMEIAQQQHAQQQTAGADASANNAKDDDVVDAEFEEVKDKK
row,SMILES,Kd
1,Cc1nc2nc(Cc3ccccc3)nn2c(C)c1Cl,> 4 mM (inactive)
2,NC(=O)Cn1nc2c3c(cccc3c1=O)-c1ccccc1-2,> 4 mM (inactive)
3,COC(=O)N(c1ccccc1)P1(=S)OCCO1,> 4 mM (inactive)
4,CN1CCN(c2ccc(N)cc2)CC1,> 4 mM (inactive)
5,O=C1CC(=O)N(c2ccccc2)c2ccccc21,> 4 mM (inactive)
6,CN(C)c1nc(N)nc(Cn2ccnc2)n1,> 4 mM (inactive)
7,O=c1cnnc(Nc2ccc(O)cc2)[nH]1,> 4 mM (inactive)
8,COc1ccc2c(c1)=C(c1sc(N)nc1O)C(=O)N=2,> 4 mM (inactive)
9,O=C(Nc1ccccc1C(F)(F)F)N1CCCCCC1,> 4 mM (inactive)
10,CC(C)C1COc2cc3oc(=O)ccc3cc2O1 (centres undefined),> 4 mM (inactive)
11,COC(=O)c1ccc(NC(=O)CC2NCCNC2=O)cc1 (centres undefined),> 4 mM (inactive)
12,Cc1nnc(SCC(=O)NC2CCCC2)[nH]c1=O,> 4 mM (inactive)
13,CC(=O)NC1C(=O)Nc2c(C)cc(C)cc21 (centres undefined),> 4 mM (inactive)
14,O=c1[nH]cc(S(=O)(=O)N2CCc3ccccc32)c(=O)[nH]1,> 4 mM (inactive)
15,O=C(O)c1ccc2ccccc2n1,> 4 mM (inactive)
16,O=C(O)c1ccc(N2CCOCC2)cc1,> 4 mM (inactive)
17,COc1cccc(N2CCNCC2)c1,> 4 mM (inactive)
18,CC(=O)Nc1cccs1,> 4 mM (inactive)
19,CCOC(=O)c1csc(C2COc3ccccc3O2)n1 (centres undefined),> 4 mM (inactive)
20,CCCCCCCCCCCCCCC(C(=O)O)C(O)(CC(=O)OC)C(=O)O (centres undefined),> 4 mM (inactive)
21,CSc1ccccc1C(=O)N1CCOCC1,> 4 mM (inactive)
22,C[C@H]1C[C@@H](O)[C@]2(O)[C@@]13CC(=O)OC[C@@]2(C)[C@](C)(O)C(=O)C3,> 4 mM (inactive)

row,SMILES,Kd
1,O=C(Nc1cnccn1)c1cccs1,> 4 mM (inactive)
2,CCOC(=O)c1c(C)cc(O)c(C=O)c1O,> 4 mM (inactive)
3,O=C(O)CN1C(=O)c2cccc([N+](=O)[O-])c2C1=O,> 4 mM (inactive)
4,O=C(NCc1ccco1)c1nc2ncccn2n1,> 4 mM (inactive)
5,CN1CCN(C(=O)/C=C\C(=O)O)CC1,> 4 mM (inactive)
6,O=C(O)C1Cc2ccccc2N1 (centres undefined),> 4 mM (inactive)
7,c1ccc2c(NC3=NCCS3)cccc2c1,> 4 mM (inactive)
8,COC(=O)C(O)[C@@H]1C2(C)C(=O)[C@@H](CC3=C4CC(=O)O[C@@H](c5ccoc5)[C@]4(C)CCC32)[C@H](OC(C)=O)C1(C)C (some centres undefined),> 4 mM (inactive)
9,Cc1n[nH]c(=O)c2ncn(C)c12,> 4 mM (inactive)
10,CN1CCN(CC(=O)N2CCc3ccccc32)CC1,> 4 mM (inactive)
11,C/C=C/C=N/NC(=O)c1ccc(=O)n(C)c1,> 4 mM (inactive)
12,Nc1[nH]c(=S)ncc1S(=O)(=O)c1ccccc1,> 4 mM (inactive)
13,O=C(Nc1ccc2c(c1)OCO2)c1cnn2cccnc12,> 4 mM (inactive)
14,Cn1c(=O)[nH]c2nc[nH]c2c1=O,> 4 mM (inactive)
15,O=C(O)C1NCCc2ccccc21 (centres undefined),> 4 mM (inactive)
16,C[C@@H]1OC(O[C@H]2[C@H](OC(=O)[C@]34CCC(C)(C)CC3C3=CCC5[C@@]6(C)CC[C@H](OC7O[C@@H](C)[C@H](O[C@@H]8OC[C@@H](O)[C@H](O)[C@H]8O)[C@@H](O)[C@H]7O)C(C)(C)C6CC[C@@]5(C)[C@]3(C)CC4O)OC[C@H](O)[C@H]2O)[C@H](O)[C@H](O)[C@H]1O[C@@H]1O[C@H](CO)[C@@H](O)[C@H](O)[C@H]1O (some centres undefined),> 4 mM (inactive)
17,O=C1CCNc2ccccc2N1,> 4 mM (inactive)
18,O=C(Nc1ccncc1)c1c(F)cccc1F,> 4 mM (inactive)
19,O=C1CC(NCc2ccco2)C(=O)NN1 (centres undefined),> 4 mM (inactive)
20,Cc1nc2c(n1O)CCc1c-2no[n+]1[O-],> 4 mM (inactive)
21,O=C1CN(c2ccccc2)CC(=O)N1,> 4 mM (inactive)
22,CC1(C)CC[C@]2(C)CC[C@]3(C)C(=CCC4[C@@]5(C)CC[C@H](O)C(C)(C)C5CC[C@]43C)C2C1 (some centres undefined),> 4 mM (inactive)
